Laboratory results as given in publication PMC11697083 (Nature Communications, 2025).

Assays:
Assay type in all cases: biochemical
[1] = biological target: T1, KIF18A (Homo sapiens, UniProt Q8NI77); test: ADP-Glo ATPase assay at varied ATP
T1 sequence (Q8NI77 1-374): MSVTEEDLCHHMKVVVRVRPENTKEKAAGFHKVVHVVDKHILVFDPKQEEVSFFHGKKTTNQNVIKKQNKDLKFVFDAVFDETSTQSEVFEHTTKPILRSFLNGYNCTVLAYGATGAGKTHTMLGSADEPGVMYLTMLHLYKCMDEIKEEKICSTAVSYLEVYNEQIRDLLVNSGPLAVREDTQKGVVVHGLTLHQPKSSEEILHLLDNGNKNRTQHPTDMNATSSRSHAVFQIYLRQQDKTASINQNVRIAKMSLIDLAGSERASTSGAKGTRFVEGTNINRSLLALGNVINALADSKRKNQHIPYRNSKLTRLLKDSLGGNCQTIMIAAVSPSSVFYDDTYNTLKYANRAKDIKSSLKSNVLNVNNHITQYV

[2] = biological target: T2, Murine KIF18A (Mus musculus, UniProt Q91WD7); test: ADP-Glo ATPase assay
T2 sequence (Q91WD7 1-886): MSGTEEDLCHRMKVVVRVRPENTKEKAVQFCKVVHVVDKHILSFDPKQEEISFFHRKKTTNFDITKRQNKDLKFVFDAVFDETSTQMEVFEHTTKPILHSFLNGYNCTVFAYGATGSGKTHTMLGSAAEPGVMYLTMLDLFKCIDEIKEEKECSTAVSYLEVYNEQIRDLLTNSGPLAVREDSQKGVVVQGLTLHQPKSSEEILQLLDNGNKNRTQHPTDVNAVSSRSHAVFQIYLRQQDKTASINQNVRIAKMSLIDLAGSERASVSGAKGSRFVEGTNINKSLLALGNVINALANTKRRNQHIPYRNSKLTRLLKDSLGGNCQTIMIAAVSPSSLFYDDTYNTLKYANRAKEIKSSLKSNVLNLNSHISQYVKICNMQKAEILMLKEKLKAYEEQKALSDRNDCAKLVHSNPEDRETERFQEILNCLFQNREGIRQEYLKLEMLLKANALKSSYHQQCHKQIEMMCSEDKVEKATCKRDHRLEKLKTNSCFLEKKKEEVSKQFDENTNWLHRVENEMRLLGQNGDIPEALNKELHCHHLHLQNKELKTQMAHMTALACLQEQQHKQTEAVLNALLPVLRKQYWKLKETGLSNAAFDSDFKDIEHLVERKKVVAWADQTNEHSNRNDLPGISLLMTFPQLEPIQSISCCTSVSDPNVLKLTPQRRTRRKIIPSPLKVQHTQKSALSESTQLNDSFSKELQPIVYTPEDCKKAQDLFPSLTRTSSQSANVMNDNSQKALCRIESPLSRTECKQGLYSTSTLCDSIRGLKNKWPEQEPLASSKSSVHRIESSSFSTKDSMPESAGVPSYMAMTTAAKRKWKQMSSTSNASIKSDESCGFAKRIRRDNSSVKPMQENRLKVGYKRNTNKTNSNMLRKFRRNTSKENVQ

[3] = biological target: T3, KIF19 (Homo sapiens, UniProt Q2TAC6); test: ADP-Glo ATPase assay
T3 sequence (Q2TAC6 1-998): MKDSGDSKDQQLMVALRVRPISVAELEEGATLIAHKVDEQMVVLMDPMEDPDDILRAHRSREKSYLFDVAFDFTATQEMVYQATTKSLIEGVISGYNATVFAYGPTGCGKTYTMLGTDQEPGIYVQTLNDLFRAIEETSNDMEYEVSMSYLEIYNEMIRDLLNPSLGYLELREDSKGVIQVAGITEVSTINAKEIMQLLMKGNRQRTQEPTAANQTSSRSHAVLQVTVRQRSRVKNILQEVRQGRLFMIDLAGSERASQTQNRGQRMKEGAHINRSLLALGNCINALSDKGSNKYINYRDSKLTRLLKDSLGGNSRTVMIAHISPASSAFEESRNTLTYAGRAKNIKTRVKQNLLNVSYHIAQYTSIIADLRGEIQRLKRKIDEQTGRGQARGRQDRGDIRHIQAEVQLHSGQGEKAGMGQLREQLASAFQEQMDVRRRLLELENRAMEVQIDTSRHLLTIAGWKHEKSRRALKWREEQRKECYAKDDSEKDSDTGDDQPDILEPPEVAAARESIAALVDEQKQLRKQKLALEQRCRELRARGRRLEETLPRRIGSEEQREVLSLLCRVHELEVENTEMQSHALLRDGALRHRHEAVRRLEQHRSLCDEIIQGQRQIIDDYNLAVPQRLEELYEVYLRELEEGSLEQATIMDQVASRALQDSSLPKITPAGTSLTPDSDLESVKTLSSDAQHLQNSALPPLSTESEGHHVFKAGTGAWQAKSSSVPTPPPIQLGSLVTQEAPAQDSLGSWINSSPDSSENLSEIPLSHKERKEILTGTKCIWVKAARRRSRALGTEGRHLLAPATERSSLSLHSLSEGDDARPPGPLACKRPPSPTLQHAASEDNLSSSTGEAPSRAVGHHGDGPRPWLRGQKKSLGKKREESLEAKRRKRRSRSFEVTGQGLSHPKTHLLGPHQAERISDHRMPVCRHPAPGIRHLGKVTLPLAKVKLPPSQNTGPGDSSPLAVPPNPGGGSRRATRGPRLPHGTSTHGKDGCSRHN

| SMILES | IC50 [1] | IC50 [2] | IC50 [3] |
| --- | --- | --- | --- |
| O=[N+]([O-])c1cc(Cl)ccc1S(=O)(=O)c1ccccc1 [BTB-1] | 2200 nM | – | – |
| CC(C)(C)NS(=O)(=O)c1cccc(C(=O)N2CC3(CCC4(CC4)CC3)c3cc(NS(C)(=O)=O)ccc32)c1 [compound 11, N-(tert-butyl)-3-(5”-(methylsulfonamido)dispiro[cyclopropane-1,1’-cyclohexane-4’,3”-indoline]-1”-carbonyl)benzenesulfonamide] | – | 8.8 nM | 280 nM |
